Assay results: patent publication US20220056044A1, “TRICYCLIC COMPOUNDS AS STING AGONISTS, AND PREPARATION METHODS AND MEDICINAL USES THEREOF” (Jiangsu Hengrui Medicine Co., Ltd., priority 2018, published 2022)

Columns and labels:
Human PBMC cells = test: IFNβ secretion from human PBMC (ELISA); format: cell-based; settings: 5 hours incubation, IFNβ in supernatant by ELISA
Protocol: Test Example 3. IFNβ Secretion from Human PBMC
1. Human PBMC cells (STEMCELL Technologies)
Cryopreserved peripheral blood human mononuclear cells (PBMCs) were rapidly thawed and resuspended in Lymphocyte Media and centrifuged at 500×g for 5 minutes. The supernatant was removed and the cell pellets were gently resuspended in cell culture and compound dilution media. Then the cells were plated in a 96-well format at a concentration of 1.5×10^5 per well. The test compounds, at varying concentrations, or vehicle control (<0.3% DMSO) were mixed with the cells giving a final volume of 150 μl per well. The plates were incubated in a humidified, 5% CO2 incubator at 37° C. for 5 hours. After incubation, the human IFNβ in the supernatant and the IFNβ standard controls were measured using human IFNβ Quantikine ELISA kit according to the manufacturer's protocol. The absorbance at 450 nm was measured with Infinite M1000 plate reader and corrected by background reading at 540 nm of each well. The concentration of IFNβ secreted was calculated based on the standard curves. The plot of IFNβ concentration versus the log of compound concentration was fit in GraphPad Prism with a 4-parameter concentration response equation to calculate EC50 and Emax (see Table 5).

[1] = target: T1, STING in THP1-Dual KI-hSTING-R232 cells (Homo sapiens, UniProt Q86WV6, H232R); test: Human THP1 reporter cell assay (IRF luciferase reporter); format: cell-based; settings: 24 hours incubation
T1 construct: host or cells: THP1-Dual KI-hSTING-R232 cells
Protocol: Test Example 2. Human THP1 Reporter Cell Assay
1. Human THP1-Dual KI-hSTING-R232 Cells (InvivoGen, Cat. #thpd-r232)
Activation of STING in THP1-Dual KI-hSTING-R232 cells was determined by measuring the luminescence signal resulting from the expression of the IRF luciferase reporter gene. All reagent preparation and assay procedures were conducted according to the protocols provided by InvivoGen. In brief, test compounds and cells (1×10^5 cells per well) were dispensed into 96-well plates with a final volume per well of 150 μl. Plates were incubated in a humidified, 5% CO2 incubator at 37° C. for 24 hours. The expression level of the reporter gene was measured by transferring 20 μl of the supernatant to a non-transparent 96-well plate to which 50 μl of QUANTI-LUC was dispensed into each well. The resulting luminescence signal was immediately read using a TECAN plate reader. The background luminescence signal from media was subtracted. The fold induction effect of the luminescence signal at each compound concentration was determined relative to controls that lack compound treatment. The plot of fold induction effect versus the log of compound concentration was fit in GraphPad Prism with a 4-parameter concentration response equation to calculate EC50 and Emax.
Activation of STING in THP1 of the compounds in the present invention was determined by the above assay, and EC50 values are shown in the following Table 4.

[2] = target: T2, hSTING R232 c-terminal domain (Homo sapiens, UniProt Q86WV6, H232R); test: Thermal shift assay for measuring the relative binding affinity to hSTING R232 c-terminal domain; settings: purified hSTING R232 (aa154-342), SYPRO Orange, Tm minus mean Tm of negative control
T2 construct: Purified hSTING R232 (aa154-342)
Protocol: Thermal shift assay for measuring the relative binding affinity to hSTING R232 c-terminal domain.
From each of the 10 mM stock solutions of compounds in DMSO, dilutions are made to create samples with three concentrations 10 mM, 5 mM, and 2.5 mM. From these dilutions a final 50-fold dilution is made into assay buffer, giving concentrations of 200 μM, 100 μM, and 50 μM. From each of the buffer dilutions, 5 μL is added to the 384 well assay plate. A positive control is setup with cGAMP using the same dilution scheme as the ligands. A baseline thermal shift for the negative control is determined using buffer and 2% DMSO.
An aliquot of protein is thawed on ice and SYPRO orange reagent is brought to room temperature. The 5000×SYPRO orange stock is diluted in assay buffer to a concentration of 10×. Protein is diluted to a concentration of 10 μM in the prepared buffer/dye solution. Five micro-liters of protein/buffer/dye solution is added to each of the sample and control wells, and the plate is sealed with the provided films. The plate is centrifuged for 5 min at 20° C. at 1000 rpm.
On the Light Cycler instrument, measurements are made over a temperature gradient from 20° C. to 99° C. at 0.07° C./s and data acquisitions collected at a rate of 8/° C. are used to measure the change in fluorescence as a function of temperature. Data analysis is performed using the Roche Light Cycler Software to determine the melting temperature (Tm ° C.) of each sample. A mean Tm ° C. for the negative control is calculated and subtracted from each of the samples to generate the ΔTm ° C. values for each of the ligands.
The relative binding affinity to hSTING c-terminal domain of the compounds of the present invention was determined by the above assay, and ΔTm ° C. values are shown in the following Table 3.

T2 sequence (Q86WV6 154-342 H232R): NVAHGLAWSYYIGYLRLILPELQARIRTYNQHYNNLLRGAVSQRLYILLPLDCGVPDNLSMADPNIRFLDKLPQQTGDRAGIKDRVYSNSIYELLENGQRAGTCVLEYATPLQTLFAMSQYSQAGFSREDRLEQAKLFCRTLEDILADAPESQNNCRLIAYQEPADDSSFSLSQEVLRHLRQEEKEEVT
T1 sequence (Q86WV6 whole entry H232R): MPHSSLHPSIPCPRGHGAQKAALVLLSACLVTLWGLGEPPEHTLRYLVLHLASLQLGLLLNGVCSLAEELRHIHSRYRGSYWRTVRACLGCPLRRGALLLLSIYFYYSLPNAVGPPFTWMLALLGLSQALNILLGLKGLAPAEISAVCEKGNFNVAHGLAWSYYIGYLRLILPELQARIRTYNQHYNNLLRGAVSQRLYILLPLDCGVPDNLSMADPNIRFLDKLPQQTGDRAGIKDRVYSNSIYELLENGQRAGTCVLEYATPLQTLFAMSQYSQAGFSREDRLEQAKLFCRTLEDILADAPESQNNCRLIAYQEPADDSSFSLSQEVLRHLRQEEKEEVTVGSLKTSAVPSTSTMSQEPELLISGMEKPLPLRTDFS

SMILES | EC50 (Human PBMC cells) | EC50 [1] | ΔTm at 100 µM [2]
CCn1nc(C)cc1C(=O)Nc1nc2cc(C(N)=O)cc3c2n1[C@@H](C/C=C/C[C@H]1COc2cc(C(N)=O)cc4nc(NC(=O)c5cc(C)nn5CC)n1c24)CO3 [Example 1, (3S,3″S)-3,3″-((E)-but-2-ene-1,4-diyl)bis(2-(1-ethyl-3-methyl-1H-pyrazole-5-carboxamido)-3,4-dihydro-5-oxa-1,2a-diazaacenaphthylene-7-carboxamide)] | 0.22 µM | 200 nM | 14.6 °C
CCn1nc(C)cc1C(=O)Nc1nc2cc(C(N)=O)cc3c2n1[C@@H](C/C=C\C[C@H]1COc2cc(C(N)=O)cc4nc(NC(=O)c5cc(C)nn5CC)n1c24)CO3 [Example 2, (3S,3″S)-3,3″-((Z)-but-2-ene-1,4-diyl)bis(2-(1-ethyl-3-methyl-1H-pyrazole-5-carboxamido)-3,4-dihydro-5-oxa-1,2a-diazaacenaphthylene-7-carboxamide)] | 0.026 µM | 6 nM | 12.2 °C
CCn1nc(C)cc1C(=O)Nc1nc2cc(C(=O)O)cc3c2n1[C@@H](C/C=C/C[C@H]1COc2cc(C(=O)O)cc4nc(NC(=O)c5cc(C)nn5CC)n1c24)CO3 [Example 3, (3S,3″S)-3,3″-((E)-but-2-ene-1,4-diyl)bis(2-(1-ethyl-3-methyl-1H-pyrazole-5-carboxamido)-3,4-dihydro-5-oxa-1,2a-diazaacenaphthylene-7-carboxylic acid)] |  |  | 5.9 °C
CCn1nc(C)cc1C(=O)Nc1nc2cc(C(N)=O)cc3c2n1[C@@H](C/C=C/C[C@H]1COc2cc(C(N)=O)cc4nc(NC(=O)C(C)(C)C)n1c24)CO3 [Example 4, (S)-3-((E)-4-((S)-7-carbamoyl-2-(1-ethyl-3-methyl-1H-pyrazole-5-carboxamido)-3,4-dihydro-5-oxa-1,2a-diazaacenaphthylen-3-yl)but-2-en-1-yl)-2-pivalamido-3,4-dihydro-5-oxa-1,2a-diazaacenaphthylene-7-carboxamide] |  | 11500 nM | 7.5 °C
CCn1nc(C)cc1C(=O)Nc1nc2cc(C(N)=O)cc3c2n1[C@@H](CCCC[C@H]1COc2cc(C(N)=O)cc4nc(NC(=O)c5cc(C)nn5CC)n1c24)CO3 [Example 5, (3S,3″S)-3,3″-(butane-1,4-diyl)bis(2-(1-ethyl-3-methyl-1H-pyrazole-5-carboxamido)-3,4-dihydro-5-oxa-1,2a-diazaacenaphthylene-7-carboxamide)] |  | 430 nM | 9.1 °C
CCn1nc(C)cc1C(=O)Nc1nc2cc(C(N)=O)cc3c2n1C(CC=CCC1CCCOc2cc(C(N)=O)cc4nc(NC(=O)c5cc(C)nn5CC)n1c24)CCCO3 (centres unmarked) [Example 7, 10,10″-(but-2-ene-1,4-diyl)bis(1-(1-ethyl-3-methyl-1H-pyrazole-5-carboxamido)-7,8,9,10-tetrahydro-6-oxa-2,10a-diazacycloocta[cd]indene-4-carboxamide)] |  |  | 6.2 °C
CCn1nc(C)cc1C(=O)Nc1nc2cc(C(N)=O)cc3c2n1C(CC=CC[C@H]1COc2cc(C(N)=O)cc4nc(NC(=O)c5cc(C)nn5CC)n1c24)CCCO3 (stereo partly drawn) [Example 8, 10-(4-((S)-7-carbamoyl-2-(1-ethyl-3-methyl-1H-pyrazole-5-carboxamido)-3,4-dihydro-5-oxa-1,2a-diazaacenaphthylen-3-yl)but-2-en-1-yl)-1-(1-ethyl-3-methyl-1H-pyrazole-5-carboxamido)-7,8,9,10-tetrahydro-6-oxa-2,10a-diazacycloocta[cd]indene-4-carboxamide] |  | 6400 nM | 
CCn1nc(C)cc1C(=O)Nc1nc2cc(C(N)=O)cc3c2n1[C@@H](C/C=C/C[C@H]1CN(C)c2cc(C(N)=O)cc4nc(NC(=O)c5cc(C)nn5CC)n1c24)CN3C [Example 9, (4S,4′S)-4,4′-((E)-but-2-ene-1,4-diyl)bis(2-(1-ethyl-3-methyl-1H-pyrazole-5-carboxamido)-6-methyl-5,6-dihydro-4H-imidazo[1,5,4-de]quinoxaline-8-carboxamide)] | 0.14 µM | 54 nM | 
CCn1nc(C)cc1C(=O)Nc1nc2cc(C(N)=O)cc3c2n1[C@@H](C/C=C\C[C@H]1CN(C)c2cc(C(N)=O)cc4nc(NC(=O)c5cc(C)nn5CC)n1c24)CN3C [Example 10, (4S,4′S)-4,4′-((Z)-but-2-ene-1,4-diyl)bis(2-(1-ethyl-3-methyl-1H-pyrazole-5-carboxamido)-6-methyl-5,6-dihydro-4H-imidazo[1,5,4-de]quinoxaline-8-carboxamide)] | 0.05 µM | 12 nM | 
CCn1nc(C)cc1C(=O)Nc1nc2cc(C(N)=O)cc3c2n1[C@@H](C/C=C/C[C@H]1CN(CCCOC)c2cc(C(N)=O)cc4nc(NC(=O)c5cc(C)nn5CC)n1c24)CN3CCCOC [Example 11, (4S,4′S)-4,4′-((E)-but-2-ene-1,4-diyl)bis(2-(1-ethyl-3-methyl-1H-pyrazole-5-carboxamido)-6-(3-methoxypropyl)-5,6-dihydro-4H-imidazo[1,5,4-de]quinoxaline-8-carboxamide)] | 0.19 µM | 150 nM | 
CCn1nc(C)cc1C(=O)Nc1nc2cc(C(N)=O)cc3c2n1[C@@H](C/C=C\C[C@H]1CN(CCCOC)c2cc(C(N)=O)cc4nc(NC(=O)c5cc(C)nn5CC)n1c24)CN3CCCOC [Example 12, (4S,4′S)-4,4′-((Z)-but-2-ene-1,4-diyl)bis(2-(1-ethyl-3-methyl-1H-pyrazole-5-carboxamido)-6-(3-methoxypropyl)-5,6-dihydro-4H-imidazo[1,5,4-de]quinoxaline-8-carboxamide)] | 0.058 µM | 140 nM | 
CCn1nc(C)cc1C(=O)Nc1nc2cc(C(N)=O)cc3c2n1[C@@H](C/C=C/C[C@H]1CN(CCCOC)c2cc(C(N)=O)cc4nc(NC(=O)c5cc(C)nn5CC)n1c24)CN3C [Example 13, (S)-4-((E)-4-((S)-8-carbamoyl-2-(1-ethyl-3-methyl-1H-pyrazole-5-carboxamido)-6-(3-methoxypropyl)-5,6-dihydro-4H-imidazo[1,5,4-de]quinoxalin-4-yl)but-2-en-1-yl)-2-(1-ethyl-3-methyl-1H-pyrazole-5-carboxamido)-6-methyl-5,6-dihydro-4H-imidazo[1,5,4-de]quinoxaline-8-carboxamide] |  | 180 nM | 
CCn1nc(C)cc1C(=O)Nc1nc2cc(C(N)=O)cc3c2n1[C@@H](C/C=C\C[C@H]1CN(CCCOC)c2cc(C(N)=O)cc4nc(NC(=O)c5cc(C)nn5CC)n1c24)CN3C [Example 14, (S)-4-((Z)-4-((S)-8-carbamoyl-2-(1-ethyl-3-methyl-1H-pyrazole-5-carboxamido)-6-(3-methoxypropyl)-5,6-dihydro-4H-imidazo[1,5,4-de]quinoxalin-4-yl)but-2-en-1-yl)-2-(1-ethyl-3-methyl-1H-pyrazole-5-carboxamido)-6-methyl-5,6-dihydro-4H-imidazo[1,5,4-de]quinoxaline-8-carboxamide] |  | 60 nM | 
